Reference: patent publication US20240200091A1, “USE OF PROTOPORPHYRINOGEN OXIDASE” (BEIJING DABEINONG BIOTECHNOLOGY CO., LTD., priority 2021, published 2024)

B1: PPO8A: nucleotide sequence encoding microbial protoporphyrinogen oxidase PPO8 (SEQ ID NO:8), Arabidopsis thaliana/soybean common codon usage bias (nucleic acid)
DNA: ATGTCAAATGAGACACAAGCCAAACAAGCTGAAACGAAACAGACTGAGTCTTCTGTCGTAAGCAAAACGCTGGTGTTGTACTCGTCCGTCGATGGTCAAACCTTAAAGATCATTAATCGTATTAAGCAGACCCTGACAGGAGAAGTTATTGTTTTGAATGTTGATGATAATCCAACTATCGATTTTAGCCTTTATCAGAAGGTCTTGATTGGAGCATCAATCCGGTATGGGAACTTTAGACCGAACATCATAAAGTTTGTTAATCAGCATAAAACACAACTTGACGCGGTGTGCAACGCTTTCTTCGTGGTTTGTCTCACAGCAAGAAAACCAGAGAAAGCTGTTCCTGAAAACAATGCATACATGAAGAAATTTGATCAGCTAAGTCAATGGCAACCTCAGTTCAAGGGAGTATTCGCGGGTGCTTTATTGTATTCACGATACAACTGGTGGCAGACACTTCTCATACAACTAATAATGAAGATGACTGGTGGCAGTACTGACAAAACTCAAGATATTGAGCTTACCGATTGGGAAAAGGTGGATTCTTTCGCACAAGACTTTGCTGCCAGGTGA
modifications: The nucleotide sequence of PPO8A

Experiments:
Format in all cases: in vivo
[1] = test system: Arabidopsis thaliana T1 plants; experiment: oxyfluorfen tolerance of transgenic Arabidopsis thaliana T1 plants (spray, grade of pesticide damage); settings: for The grade of pesticide damage/plant: grade 0 / The grade of pesticide damage/plant: grade 1 / The grade of pesticide damage/plant: grade 2 / The grade of pesticide damage/plant: grade 3: 7 DAT, number of plants of 24 per genotype, grades
Source text: (§1) The transformed Arabidopsis thaliana T1 plants were initially selected using glufosinate herbicide. The Arabidopsis thaliana T1 plants (PPO1A) into which the PPO1A nucleotide sequence was introduced, the Arabidopsis thaliana T1 plants (PPO2A) into which the PPO2A nucleotide sequence was introduced, the Arabidopsis thaliana T1 plants (PPO3A) into which the PPO3A nucleotide sequence was introduced, the Arabidopsis thaliana T1 plants (PPO4A) into which the PPO4A nucleotide sequence was introduced, the Arabidopsis thaliana T1 plants (PPO5A) into which the PPO5A nucleotide sequence was introduced, the Arabidopsis thaliana T1 plants (PPO6A) into which the PPO6A nucleotide sequence was introduced, the Arabidopsis thaliana T1 plants (PPO7A) into which the PPO7A nucleotide sequence was introduced, the Arabidopsis thaliana T1 plants (PPO8A) into which the PPO8A nucleotide sequence was introduced, the Arabidopsis thaliana T1 plants (PPO9A) into which the PPO9A nucleotide sequence was introduced, the Arabidopsis thaliana T1 plants (PPO10A) into which the […] nucleotide sequence was introduced, the Arabidopsis thaliana T1 plants (PPO11A) into which the PPO11A nucleotide sequence was introduced, the Arabidopsis thaliana T1 plants (PPO12A) into which the PPO12A nucleotide sequence was introduced, the Arabidopsis thaliana T1 plants (PPO13A) into which the PPO13A nucleotide sequence was introduced, the Arabidopsis thaliana T1 plants (PPO14A) into which the PPO14A nucleotide sequence was introduced, the Arabidopsis thaliana T1 plants (PPO-ATA) into which the PPO-ATA nucleotide sequence was introduced, the Arabidopsis thaliana T1 plants (PPO-APA) into which the PPO-APA nucleotide sequence was introduced, the Arabidopsis thaliana T1 plants (control vector) into which the control vector was introduced, and the wild-type Arabidopsis thaliana plants (CK) (with 24 plants being included in each genotype) (18 days after sowing) were sprayed with oxyfluorfen at three concentrations (180 g ai/ha (one-fold field concentration, 1×), 720 g ai/ha (four-fold field concentration, 4×), and 0 g ai/ha (water, 0×)), saflufenacil at three concentrations (25 g ai/ha (one-fold field concentration, 1×), 100 g ai/ha (four-fold field concentration, 4×), and 0 g ai/ha (water, 0×)), flumioxazin at three concentrations (60 g ai/ha (one-fold field concentration, 1×), 240 g ai/ha (four-fold field concentration, 4×), and 0 g ai/ha (water, 0×), and sulfentrazone at three concentrations (450 g ai/ha (one-fold field concentration, 1×), 900 g ai/ha (two-fold field concentration, 2×), and 0 g ai/ha (water, 0×) to determine the tolerance of Arabidopsis thaliana to the herbicides. After 7 days of spraying (7 DAT), the damage level of each plant caused by the herbicide was evaluated according to the average of the damage levels (%) of plants (the average of the damage levels (%) of plants=the injured leaf area/the total leaf area×[…]), i.e., the grade of pesticide damage: grade 0 means that the growth status of plants is essentially consistent with those sprayed with the blank solvent (water); grade 1 means that the average of the damage levels of plants is less than 10%; grade 2 means that the average of the damage levels of plants is greater than […]; and grade 3 means that the average of the damage levels of plants is 100%. The plants having a growth status falling within grades 0 and 1 are classified as highly resistant plants; those having a growth status falling within grade 2 are classified as poorly resistant plants; and those having a growth status falling within grade 3 are classified as non-resistant plants.

[2] = test system: Arabidopsis thaliana T1 plants; experiment: sulfentrazone tolerance of transgenic Arabidopsis thaliana T1 plants (spray, grade of pesticide damage); settings: for The grade of pesticide: grade 0 / The grade of pesticide: grade 1 / The grade of pesticide: grade 2 / The grade of pesticide: grade 3: 7 DAT, number of plants of 24 per genotype, grades
Source text: as §1

[3] = test system: Arabidopsis thaliana T1 plants; experiment: saflufenacil tolerance of transgenic Arabidopsis thaliana T1 plants (spray, grade of pesticide damage); settings: for The grade of pesticide damage/plant: grade 0 / The grade of pesticide damage/plant: grade 1 / The grade of pesticide damage/plant: grade 2 / The grade of pesticide damage/plant: grade 3: 7 DAT, number of plants of 24 per genotype, grades
Source text: as §1

[4] = test system: Arabidopsis thaliana T1 plants; experiment: flumioxazin tolerance of transgenic Arabidopsis thaliana T1 plants (spray, grade of pesticide damage); settings: for The grade of pesticide damage/plant: grade 0 / The grade of pesticide damage/plant: grade 1 / The grade of pesticide damage/plant: grade 2 / The grade of pesticide damage/plant: grade 3: 7 DAT, number of plants of 24 per genotype, grades
Source text: as §1

[5] = saflufenacil at four-fold field concentration, of 24 plants

| Molecule | The grade of pesticide: grade 0 ([2]; sulfentrazone 450 g ai/ha (1×)) | The grade of pesticide: grade 1 ([2]; sulfentrazone 450 g ai/ha (1×)) | The grade of pesticide: grade 2 ([2]; sulfentrazone 450 g ai/ha (1×)) | The grade of pesticide: grade 3 ([2]; sulfentrazone 450 g ai/ha (1×)) | The grade of pesticide: grade 0 ([2]; sulfentrazone 900 g ai/ha (2×)) | The grade of pesticide: grade 1 ([2]; sulfentrazone 900 g ai/ha (2×)) | The grade of pesticide: grade 2 ([2]; sulfentrazone 900 g ai/ha (2×)) | The grade of pesticide: grade 3 ([2]; sulfentrazone 900 g ai/ha (2×)) | The grade of pesticide damage/plant: grade 0 ([3]; saflufenacil 25 g ai/ha (1×)) [plant] | The grade of pesticide damage/plant: grade 1 ([3]; saflufenacil 25 g ai/ha (1×)) [plant] | The grade of pesticide damage/plant: grade 2 ([3]; saflufenacil 25 g ai/ha (1×)) [plant] | The grade of pesticide damage/plant: grade 3 ([3]; saflufenacil 25 g ai/ha (1×)) [plant] | The grade of pesticide damage/plant: grade 0 ([3]; saflufenacil 100 g ai/ha (4×)) [plant] | The grade of pesticide damage/plant: grade 1 ([3]; saflufenacil 100 g ai/ha (4×)) [plant] | The grade of pesticide damage/plant: grade 2 ([3]; saflufenacil 100 g ai/ha (4×)) [plant] | The grade of pesticide damage/plant: grade 3 ([3]; saflufenacil 100 g ai/ha (4×)) [plant] | The grade of pesticide damage/plant: grade 0 ([4]; flumioxazin 60 g ai/ha (1×)) [plant] | The grade of pesticide damage/plant: grade 1 ([4]; flumioxazin 60 g ai/ha (1×)) [plant] | The grade of pesticide damage/plant: grade 2 ([4]; flumioxazin 60 g ai/ha (1×)) [plant] | The grade of pesticide damage/plant: grade 3 ([4]; flumioxazin 60 g ai/ha (1×)) [plant] | further results |
| --- | --- | --- | --- | --- | --- | --- | --- | --- | --- | --- | --- | --- | --- | --- | --- | --- | --- | --- | --- | --- | --- |
| CCOc1cc(Oc2ccc(C(F)(F)F)cc2Cl)ccc1[N+](=O)[O-] [oxyfluorfen, 2-chloro-1-(3-ethoxy-4-nitrophenoxy)-4-trifluoromethylbenzene, reference compound] | – | – | – | – | – | – | – | – | – | – | – | – | – | – | – | – | – | – | – | – | effective dose distinguishing sensitive plants from plants having an average level of resistance ([1]; for Arabidopsis thaliana, oxyfluorfen herbicide): 180 g ai/ha |
| PPO-ATA: nucleotide sequence encoding Arabidopsis protoporphyrinogen oxidase PPO-AT (SEQ ID NO:46), Arabidopsis thaliana/soybean common codon usage bias [reference compound] | 0 | 0 | 0 | 24 | 0 | 0 | 0 | 24 | 0 | 0 | 0 | 24 | 0 | 0 | 0 | 24 | 0 | 0 | 2 | 22 | tolerance to sulfentrazone ([2]; sulfentrazone at different concentrations (450 and 900 g ai/ha)): no tolerance; tolerance to saflufenacil ([3]; saflufenacil at four-fold field concentration (100 g ai/ha)): no tolerance; tolerance to saflufenacil ([3]; saflufenacil at one-fold field concentration (25 g ai/ha)): no tolerance; The grade of pesticide damage/plant: grade 0 ([4]; flumioxazin 240 g ai/ha (4×)): 0 plant; The grade of pesticide damage/plant: grade 1 ([4]; flumioxazin 240 g ai/ha (4×)): 0 plant; The grade of pesticide damage/plant: grade 2 ([4]; flumioxazin 240 g ai/ha (4×)): 0 plant; The grade of pesticide damage/plant: grade 3 ([4]; flumioxazin 240 g ai/ha (4×)): 24 plant; tolerance to flumioxazin ([4]; flumioxazin at different concentrations (60 and 240 g ai/ha)): basically no tolerance; The grade of pesticide damage/plant: grade 0 ([1]; oxyfluorfen 180 g ai/ha (1×)): 0 plant; The grade of pesticide damage/plant: grade 1 ([1]; oxyfluorfen 180 g ai/ha (1×)): 0 plant; The grade of pesticide damage/plant: grade 2 ([1]; oxyfluorfen 180 g ai/ha (1×)): 8 plant; The grade of pesticide damage/plant: grade 3 ([1]; oxyfluorfen 180 g ai/ha (1×)): 16 plant; The grade of pesticide damage/plant: grade 0 ([1]; oxyfluorfen 720 g ai/ha (4×)): 0 plant; The grade of pesticide damage/plant: grade 1 ([1]; oxyfluorfen 720 g ai/ha (4×)): 0 plant; The grade of pesticide damage/plant: grade 2 ([1]; oxyfluorfen 720 g ai/ha (4×)): 0 plant; The grade of pesticide damage/plant: grade 3 ([1]; oxyfluorfen 720 g ai/ha (4×)): 24 plant; tolerance to oxyfluorfen ([1]; oxyfluorfen at different concentrations (180 and 720 g ai/ha), compared with the control vector and CK): basically no tolerance |
| B1 | 24 | 0 | 0 | 0 | 22 | 2 | 0 | 0 | 24 | 0 | 0 | 0 | 8 | 14 | 2 | 0 | 24 | 0 | 0 | 0 | plants that exhibited high-resistant tolerance [3, 5]: 22 plants; plants that exhibited moderate- or poor-resistant tolerance [3, 5]: 2 plants; The grade of pesticide damage/plant: grade 0 ([4]; flumioxazin 240 g ai/ha (4×)): 23 plant; The grade of pesticide damage/plant: grade 1 ([4]; flumioxazin 240 g ai/ha (4×)): 1 plant; The grade of pesticide damage/plant: grade 2 ([4]; flumioxazin 240 g ai/ha (4×)): 0 plant; The grade of pesticide damage/plant: grade 3 ([4]; flumioxazin 240 g ai/ha (4×)): 0 plant; The grade of pesticide damage/plant: grade 0 ([1]; oxyfluorfen 180 g ai/ha (1×)): 24 plant; The grade of pesticide damage/plant: grade 1 ([1]; oxyfluorfen 180 g ai/ha (1×)): 0 plant; The grade of pesticide damage/plant: grade 2 ([1]; oxyfluorfen 180 g ai/ha (1×)): 0 plant; The grade of pesticide damage/plant: grade 3 ([1]; oxyfluorfen 180 g ai/ha (1×)): 0 plant; The grade of pesticide damage/plant: grade 0 ([1]; oxyfluorfen 720 g ai/ha (4×)): 20 plant; The grade of pesticide damage/plant: grade 1 ([1]; oxyfluorfen 720 g ai/ha (4×)): 4 plant; The grade of pesticide damage/plant: grade 2 ([1]; oxyfluorfen 720 g ai/ha (4×)): 0 plant; The grade of pesticide damage/plant: grade 3 ([1]; oxyfluorfen 720 g ai/ha (4×)): 0 plant |
